Measured values taken from patent US10730850B2, “Pyridinylmethyl carbamimidoylcarbamate derivatives and their use as AOC3 inhibitors” (Boehringer Ingelheim International GmbH, priority 2016, dated 2020).
Read-outs that look alike come from different tables or passages of the source.

Key:
[1] = In vivo clearance experiment (biliary clearance); details: rat, bile collected 0-180 min
Description: Bile flow is continuously collected from animal for 4 hours, including the 1 hour post-surgery recovery period. For short biliary excretion study, blood samples are taken at 0, 5 and 180 min and bile samples collection intervals are: 10 min before dosing and 0-180 min. All blood and bile samples are collected from 2 rats and are not pooled. Bile is kept at 4° C. during the collecting intervals and immediately frozen in dry ice after the collecting period is over.
As biliary clearance is expected to be impaired in patients with liver diseases (Clarke J. D. et. al J. Pharm. Exp. Ther. 348:452-458; Ferslew B. C. et al. Clin. Pharm. & Ther. Vol 97(4) XX), a reduced biliary clearance results in a better predictibitlity of the pharmacokinetics and assessment of safety margins in this patient population.

[2] = system: hepatocytes; test: Metabolic stability assay in hepatocyte suspension; type: in vitro ADME; details: 1 μM test compound
Description: The metabolic degradation of the test compound is assayed in a hepatocyte suspension. Hepatocytes (typically cryopreserved) are incubated in an appropriate buffer system (e.g. Dulbecco's modified eagle medium plus 3.5 μg glucagon/500 mL, 2.5 mg insulin/500 mL and 3.75 mg/500 mL hydrocortison) containing 5% species serum. Following a (typically) 30 min preincubation in an incubator (37° C., 10% CO2) 5 μl of test compound solution (80 μM; from 2 mM in DMSO stock solution diluted 1:25 with medium) are added into 395 μl hepatocyte suspension (cell density in the range 0.25-5 Mio cells/mL, typically 1 Mio cells/mL; final concentration of test compound 1 μM, final DMSO concentration 0.05%). The cells are incubated for six hours (incubator, orbital shaker) and samples (25 μl) are taken at 0, 0.5, 1, 2, 4 and 6 hours. Samples are transferred into acetonitrile and pelleted by centrifugation (5 min). The supernatant is transferred to a new 96-deepwell plate, evaporated under nitrogen and resuspended. Decline of parent compound is analyzed by HPLC-MS/MS
CLint is calculated as follows CL_INTRINSIC=Dose/AUC=(C0/CD)/(AUD+clast/k)×1000/60. C0: initial concentration in the incubation [μM], CD: cell density of vital cells [10e6 cells/mL], AUD: area under the data [μM×h], clast: concentration of last data point [μM], k: slope of the regression line for parent decline [h-1].
The calculated in vitro hepatic intrinsic clearance can be scaled up to the intrinsic in vivo hepatic Clearance and used to predict hepatic in vivo blood clearance (CL) by the use of a liver model (well stirred model). CL_INTRINSIC_INVIVO [ml/min/kg]=(CL_INTRINSIC [μL/min/10e6 cells]×hepatocellularity [10e6 cells/g liver]×liver factor [g/kg bodyweight])/1000 CL [ml/min/kg]=CL_INTRINSIC_INVIVO [ml/min/kg]×hepatic blood flow [ml/min/kg]/(CL_INTRINSIC_INVIVO [ml/min/kg]+hepatic blood flow [ml/min/kg])

[3] = biological target: AOC3 (Homo sapiens (Human), UniProt Q16853); test: MAO-Glo AOC3 assay (recombinant CHO cells overexpressing AOC3); type: biochemical
Source text: The MAO-Glo™ Assay (commercial available from PROMEGA, # V1402) provides a sensitive method for the measurement of monoamine oxidase (MAO) activity (Valley, M. P. et al., 2006, Anal. Biochem. 359: 238-246) from a variety of tissues, biofluids or recombinant expressed or purified enzymes. As substrate a derivate of the beetle luciferin ((4S)-4,5-dihydro-2-(6-hydroxybenzothiazolyl)-4-thiazole-carboxylic acid) is used, which is oxidized at a primary amine moiety. After a spontaneous elimination and a catalyzed esterase reaction, the turnover of the luciferine by the luciferase is recorded as a signal of AOC3 activity.
An aliquot of 3 μL of the compound dilution is added to a 384 well plate (Optiplate, PS, flat bottom, white, PERKIN ELMER, #6007290) with a final DMSO concentration of 6.6%. Recombinant CHO cells, overexpressing the human (1500 cells/well), mouse (1000 cells/well) or rat (500 cells/well) AOC3 enzyme are diluted in reaction buffer and added in a volume of 15 μL to the wells. After incubation for 20 minutes at 37° C., 2 μL of MAO substrate (dissolved in DMSO at 16 mM, adjusted to assay concentration in reaction buffer to a final assay concentration of 20 μM) is added and further incubated for 60 minutes at 37° C. The turnover of the substrate is determined by the addition of 20 μL of the detection-mix which was generated by the addition of reconstitution buffer with esterase (PROMEGA, # V1402) to the luciferine detection reagent (PROMEGA, # V1402). After an incubation period of 20 minutes, the luminescent signal is measured with Envision 2104 Multilabel Reader (PERKIN ELMER).
In the following table the activity expressed as IC50 (nM) of compounds according to the invention is presented wherein the IC50 values are determined in the MAO-Glo™ AOC3 assay as described hereinbefore. The term “Example” refers to the example numbers according to the following experimental section.

[4] = comparative compounds of EP 2 695 881
[5] = compounds of the present invention
[6] = Table 3, compounds of the present invention
[7] = Table 2, compounds of the present invention, read-out: IC50

Chain of AOC3 (Q16853 whole entry): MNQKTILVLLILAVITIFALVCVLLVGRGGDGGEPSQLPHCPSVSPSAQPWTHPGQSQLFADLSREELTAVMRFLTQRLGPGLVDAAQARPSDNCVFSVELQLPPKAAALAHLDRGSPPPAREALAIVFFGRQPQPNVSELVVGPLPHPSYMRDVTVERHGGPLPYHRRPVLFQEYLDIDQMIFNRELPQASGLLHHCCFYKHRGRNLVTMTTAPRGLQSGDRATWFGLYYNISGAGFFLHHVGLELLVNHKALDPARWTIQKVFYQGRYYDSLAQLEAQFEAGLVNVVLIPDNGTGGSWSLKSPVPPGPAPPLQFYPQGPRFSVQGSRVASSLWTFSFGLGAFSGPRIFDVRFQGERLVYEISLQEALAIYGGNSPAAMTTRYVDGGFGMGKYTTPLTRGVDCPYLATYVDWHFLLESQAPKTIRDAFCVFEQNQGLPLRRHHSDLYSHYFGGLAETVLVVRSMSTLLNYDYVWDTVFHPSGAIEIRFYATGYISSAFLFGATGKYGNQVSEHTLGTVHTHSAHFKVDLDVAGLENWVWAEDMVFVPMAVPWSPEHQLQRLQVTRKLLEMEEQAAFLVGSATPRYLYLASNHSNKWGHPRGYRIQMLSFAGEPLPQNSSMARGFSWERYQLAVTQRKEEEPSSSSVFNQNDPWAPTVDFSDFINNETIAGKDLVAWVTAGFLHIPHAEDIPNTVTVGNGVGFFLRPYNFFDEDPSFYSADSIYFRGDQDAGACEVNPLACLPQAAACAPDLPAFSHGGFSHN

Cl (biliary clearance) [1, 4]	Cl (biliary clearance) [1, 5]	QH [2, 6]	QH ([2]; Table 4)	IC50 ([3]; Table 1, read-out: AOC3 IC50)	IC50 [3, 7]	Compound
22.4%						CC(=O)N1CCC(COc2ncc(-c3cccc(COC(=O)NC(=N)N)c3F)cn2)CC1 [11 (221), reference compound]
10.3%						CC(=O)N1CCC(C2CN(c3cccc(COC(=O)NC(=N)N)c3F)C2)CC1 [559 (293), reference compound]
	1.2%	3.7%	4%	4 nM	4.1 nM	COc1ncc(N2CCN(c3nccc(COC(=O)NC(=N)N)c3F)CC2)cn1 [Example 1.072]
	2.2%	23%	10%	3 nM	2.8 nM	N=C(N)NC(=O)OCc1ccnc(N2CCN(c3ccc(C(N)=O)cc3)CC2)c1F [Example 1.084]
